Experimental data taken from patent US5324648A, “Substituted isocoumarins as serine protease inhibitors and anti-inflammatory agents” (Georgia Tech Research Corporation, priority 1992, dated 1994).
Where two headings read alike, the source gives them in different places.

Tests used:
complement protein D = complement protein D (Homo sapiens, UniProt P00746); experiment: Inactivation rate of complement protein D; assay type: biochemical; settings: Table II; pH 7.5, 25° C; [I] 0.05 to 1.29 mM; read-out: kobs/[I]
complement protein D, sequence (P00746 26-253): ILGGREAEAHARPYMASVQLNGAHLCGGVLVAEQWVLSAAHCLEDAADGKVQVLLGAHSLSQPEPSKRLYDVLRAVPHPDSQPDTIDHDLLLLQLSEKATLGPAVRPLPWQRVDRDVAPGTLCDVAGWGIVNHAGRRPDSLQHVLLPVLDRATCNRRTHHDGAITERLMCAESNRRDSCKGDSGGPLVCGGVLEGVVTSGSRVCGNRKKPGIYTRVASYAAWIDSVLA
Method: (§1) Inactivation rates of serine proteases by substituted isocoumarins were measured by the incubation method. An aliquot of inhibitor (25 or 50 μl) in Me2 SO was added to a buffered enzyme solution (0.01-2.3 μM) to initiate the inactivation. Aliquots (50 μl) were withdrawn at various intervals and the residual enzymatic activity was measured. Me2 SO concentration in the reaction mixture was 8-12% (v/v). 0.1 Hepes, 0.01M CaCl2, pH 7.5 buffer was utilized for trypsin and coagulation enzymes. 0.1M Hepes, 0.5M NaCl, pH 7.5 was utilized for other serine proteases. The inhibitor concentrations are shown in all the tables. Peptide thioesters or peptide nitroanilides with appropriate sequence were used as substrates for various serine proteases. All peptide thioester hydrolysis rates were measured with assay mixtures containing 4,4'-dithiodipyridine (ε324 =19800M^-1 cm^-1; Grasetti & Murray, Arch. Biochem. Biophys. 119, pp 41-49 (1967)). Peptide 4-nitroanilide nitroanilide hydrolysis was measured at 410 nm (ε410 =8800M^-1 cm^-1; Erlanger et al., Arch. Biochem. Biophys. 95, pp 271-278 (1961)). First order inactivation rate constant (kobs) were obtained from plots of ln (vt /vo) vs time, and the correlation coefficients were greater than 0.98.
^a Conditions were 0.1M Hepes, 0.5M NaCl, pH 7.5, 8-10% Me2 SO
and 25° C. Inactivation rates were measured by incubation method.
Enzyme concentrations were as follows: protein D, 1-9 μM; C2, 0.7-1
μM; B, 1.8 μM; Bb, 0.3-0.8 μM; Cl^- s, 0.07 μM; Cl^-

[1] = biological target: sheep lung lymph tryptase; experiment: Inactivation rate of sheep lung lymph tryptase; assay type: biochemical; settings: Table III; pH 7.5, 25° C; [I] 10 to 460 μM
[2] = system: T1, human Q-31 tryptase (Homo sapiens); experiment: Inactivation rate of human Q-31 tryptase; assay type: biochemical; settings: Table VII; pH 7.5, 25° C; [I] 3 to 500 μM; read-out: kobs/[I]
T1 construct: human cytotoxic lymphocyte Q31 tryptase; endogenous in cells; host or cells: human cytotoxic lymphocyte Q31
T1 sequence (P12544 29-262): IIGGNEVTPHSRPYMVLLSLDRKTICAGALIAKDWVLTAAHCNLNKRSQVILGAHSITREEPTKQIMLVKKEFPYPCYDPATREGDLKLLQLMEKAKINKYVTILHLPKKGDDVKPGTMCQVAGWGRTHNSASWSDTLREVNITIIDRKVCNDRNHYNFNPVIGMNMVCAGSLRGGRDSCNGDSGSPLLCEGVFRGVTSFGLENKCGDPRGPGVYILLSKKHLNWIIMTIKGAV
Method: as §1
^a Inactivation rates were measured at 0.1M Hepes, 0.01M CaCl2,
pH 7.5, 8% Me2 SO and 25° C. by incubation method. ZArg-SBzl
(74-85 μM) was used as the substrate to monitor the residual enzymatic

bovine factor Xa = biological target: T2, bovine factor Xa (Bos taurus, UniProt P00743); experiment: Inactivation rate of bovine factor Xa; assay type: biochemical; settings: Table I; pH 7.5, 25° C; [I] 0.4 to 310 μM; read-out: kobs/[I]
T2 construct: bovine factor Xa
T2 sequence (P00743 234-492 limits assumed): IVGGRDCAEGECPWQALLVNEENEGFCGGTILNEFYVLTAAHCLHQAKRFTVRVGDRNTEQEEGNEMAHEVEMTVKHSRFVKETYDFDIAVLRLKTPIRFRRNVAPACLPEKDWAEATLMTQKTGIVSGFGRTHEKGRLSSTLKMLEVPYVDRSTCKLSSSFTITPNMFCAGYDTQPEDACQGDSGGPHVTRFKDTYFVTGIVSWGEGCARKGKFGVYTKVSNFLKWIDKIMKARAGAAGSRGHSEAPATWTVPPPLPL
T2 sequence (P00743 41-180 partner limits assumed): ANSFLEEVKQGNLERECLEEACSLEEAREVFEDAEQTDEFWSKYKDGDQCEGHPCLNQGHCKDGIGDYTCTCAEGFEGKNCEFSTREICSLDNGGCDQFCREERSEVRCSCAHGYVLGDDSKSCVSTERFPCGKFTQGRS

human factor XIa = biological target: T3, human factor XIa (Homo sapiens, UniProt P03951); experiment: Inactivation rate of human factor XIa; assay type: biochemical; settings: pH 7.5, 25° C, read-out: kobs/[I]
T3 construct: human factor XIa
T3 sequence (P03951 388-625 limits assumed): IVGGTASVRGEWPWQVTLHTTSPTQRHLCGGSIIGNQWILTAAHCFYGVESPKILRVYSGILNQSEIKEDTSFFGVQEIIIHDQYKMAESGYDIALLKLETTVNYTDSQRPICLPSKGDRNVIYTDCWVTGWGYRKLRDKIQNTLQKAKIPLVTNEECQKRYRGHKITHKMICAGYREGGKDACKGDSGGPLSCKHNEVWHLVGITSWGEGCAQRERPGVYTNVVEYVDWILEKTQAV
T3 sequence (P03951 19-387 partner limits assumed): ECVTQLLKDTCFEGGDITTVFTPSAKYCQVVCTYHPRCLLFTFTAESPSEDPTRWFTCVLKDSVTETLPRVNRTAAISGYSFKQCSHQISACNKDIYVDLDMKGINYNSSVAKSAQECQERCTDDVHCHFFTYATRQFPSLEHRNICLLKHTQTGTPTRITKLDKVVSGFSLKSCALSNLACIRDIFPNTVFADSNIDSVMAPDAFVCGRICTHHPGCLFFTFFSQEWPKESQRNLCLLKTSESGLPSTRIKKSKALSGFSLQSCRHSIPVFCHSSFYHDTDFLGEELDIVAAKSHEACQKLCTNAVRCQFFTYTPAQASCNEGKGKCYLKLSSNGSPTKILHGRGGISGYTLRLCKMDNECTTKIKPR
Method: as §1
^a Conditions were as 0.1M Hepes, 0.01M CaCl2, pH 7.5 and 8-12%
Me2 SO and 25° C. Rate constants were measured by incubation
method unless otherwise noted. An aliquot of inhibitor was added to an
enzyme solution and aliquots removed with time and assayed for remaining
enzymatic activity. Firstorder rate constants, kobs were obtained
from the plots of ln(vt /vo) versus time.
^a Inhibition rates were measured in 0.1M Hepes, 0.01M CaCl2, pH
7.5 buffer, 8% Me2 SO and at 25° C.

human factor XIIa = biological target: T4, human factor XIIa (Homo sapiens, UniProt P00748); experiment: Inactivation rate of human factor XIIa; assay type: biochemical; settings: pH 7.5, 25° C, read-out: kobs/[I]
T4 construct: human factor XIIa
T4 sequence (P00748 373-615 limits assumed): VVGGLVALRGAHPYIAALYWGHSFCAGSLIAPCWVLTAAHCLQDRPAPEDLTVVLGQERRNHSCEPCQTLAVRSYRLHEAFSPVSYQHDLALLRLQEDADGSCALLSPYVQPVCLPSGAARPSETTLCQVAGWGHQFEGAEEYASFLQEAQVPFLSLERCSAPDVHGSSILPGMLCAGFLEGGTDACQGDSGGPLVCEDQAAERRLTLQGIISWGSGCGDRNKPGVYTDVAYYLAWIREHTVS
T4 sequence (P00748 20-372 partner limits assumed): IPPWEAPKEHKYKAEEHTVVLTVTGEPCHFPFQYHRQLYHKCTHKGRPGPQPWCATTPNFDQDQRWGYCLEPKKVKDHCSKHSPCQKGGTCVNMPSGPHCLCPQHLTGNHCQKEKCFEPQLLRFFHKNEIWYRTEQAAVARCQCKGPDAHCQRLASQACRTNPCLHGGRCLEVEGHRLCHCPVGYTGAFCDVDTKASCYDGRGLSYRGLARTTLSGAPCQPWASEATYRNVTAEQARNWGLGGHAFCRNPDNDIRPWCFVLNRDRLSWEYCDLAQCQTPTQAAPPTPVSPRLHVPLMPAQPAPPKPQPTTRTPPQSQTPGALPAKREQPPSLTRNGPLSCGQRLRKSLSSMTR
In short: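 Residual activity was followed on peptide thioester (with 4,4'-dithiodipyridine, 324 nm) or 4-nitroanilide (410 nm) substrates after enzyme (0.01-2.3 μM) was incubated with isocoumarin at 25° C in 0.1M Hepes, 0.01M CaCl2, pH 7.5 containing 8-12% Me2SO. First-order kobs came from ln(vt/vo) versus time plots.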

[3] = biological target: T5, porcine pancreatic elastase (PPE) (Sus scrofa, UniProt P00772); experiment: Inactivation of porcine pancreatic elastase (PPE); assay type: biochemical; settings: pH 7.5, 25° C, read-out: kobs/[I]
T5 construct: from tissue; host or cells: porcine pancreas (from the name)
T5 sequence (P00772 27-266): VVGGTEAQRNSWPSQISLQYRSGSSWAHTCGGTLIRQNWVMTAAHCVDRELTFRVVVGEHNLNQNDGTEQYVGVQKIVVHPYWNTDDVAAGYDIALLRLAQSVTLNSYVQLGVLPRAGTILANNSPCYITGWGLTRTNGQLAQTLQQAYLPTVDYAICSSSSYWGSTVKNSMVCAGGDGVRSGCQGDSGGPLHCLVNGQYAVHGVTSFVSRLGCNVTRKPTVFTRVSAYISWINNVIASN

[4] = Spontaneous hydrolysis in Hepes buffer; assay type: physicochemical; settings: 0.1 Hepes, 0.5M NaCl, pH 7.5, 9% Me2SO, 25° C; for half-life: hepes buffer, read-out: t1/2 for spontaneous hydrolysis
Method: ^a Conditions were 0.1 Hepes, 0.5M NaCl, pH 7.5 and 9% Me2 SO at
25° C. Spontaneous hydrolysis rates were measured
spectrophotometrically by monitoring the decrease in absorbance due to th
isocoumarin ring system (wavelength 335-380 nm) using the firstorder rate

human plasmin = biological target: T6, human plasmin (Homo sapiens, UniProt P00747); experiment: Inactivation rate of human plasmin; assay type: biochemical; settings: read-out: kobs/[I]
T6 construct: human plasmin; from tissue; host or cells: human plasma
T6 sequence (P00747 581-810 limits assumed): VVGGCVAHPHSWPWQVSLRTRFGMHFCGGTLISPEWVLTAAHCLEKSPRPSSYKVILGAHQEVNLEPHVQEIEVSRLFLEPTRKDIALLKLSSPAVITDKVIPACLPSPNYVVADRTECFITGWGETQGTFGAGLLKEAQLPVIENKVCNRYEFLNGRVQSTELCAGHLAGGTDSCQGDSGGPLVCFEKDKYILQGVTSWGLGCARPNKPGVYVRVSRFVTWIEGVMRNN
T6 sequence (P00747 97-580 partner limits assumed): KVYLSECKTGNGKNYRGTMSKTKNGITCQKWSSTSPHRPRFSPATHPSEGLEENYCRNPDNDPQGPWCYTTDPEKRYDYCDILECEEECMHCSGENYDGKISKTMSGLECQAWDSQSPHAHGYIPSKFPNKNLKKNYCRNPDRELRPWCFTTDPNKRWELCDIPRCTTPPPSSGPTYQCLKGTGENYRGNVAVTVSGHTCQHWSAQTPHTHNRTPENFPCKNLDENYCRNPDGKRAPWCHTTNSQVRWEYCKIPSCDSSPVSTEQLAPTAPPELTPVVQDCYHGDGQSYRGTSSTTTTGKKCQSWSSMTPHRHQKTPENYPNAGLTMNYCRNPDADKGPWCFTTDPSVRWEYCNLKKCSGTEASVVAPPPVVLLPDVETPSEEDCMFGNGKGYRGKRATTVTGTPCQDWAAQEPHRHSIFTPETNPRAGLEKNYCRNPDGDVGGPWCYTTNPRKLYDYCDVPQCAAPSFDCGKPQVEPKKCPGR

[5] = Table VI, pH 7.5, 25° C, [I] 4 to 330 μM

## O=c1oc(Cl)c(Cl)c2ccccc12 [3,4-dichloroisocoumarin, reference compound]
Complement protein D
  kinact/KI: 192 M⁻¹ s⁻¹
[1]
  kobs/[I]: 39 M⁻¹ s⁻¹
[2]
  kinact/KI: 29 M⁻¹ s⁻¹

## N=C(N)SCCOc1oc(=O)c2ccccc2c1Cl [3-(2-isothiureidoethoxy)-4-chloroisocoumarin]
Bovine factor Xa
  kinact/KI: 5600 M⁻¹ s⁻¹
Human factor XIa; Table I, [I] 3 to 330 μM
  kinact/KI: 44000 M⁻¹ s⁻¹
Human factor XIIa; Table I, [I] 3 to 330 μM
  kinact/KI: 39000 M⁻¹ s⁻¹
Complement protein D
  kinact/KI: 61 M⁻¹ s⁻¹
[1]
  kobs/[I]: 290 M⁻¹ s⁻¹
[3]; Table IV, [I] 0.01 to 0.51 mM
  kinact/KI: 270 M⁻¹ s⁻¹
[4]
  half-life: 1.38 h

## NCCCOc1oc(=O)c2ccccc2c1Cl [3-(3-aminopropoxy)-4-chloroisocoumarin]
Bovine factor Xa
  kinact/KI: 160 M⁻¹ s⁻¹
Human factor XIa; Table I, [I] 3 to 330 μM
  kinact/KI: 380 M⁻¹ s⁻¹
Human factor XIIa; Table I, [I] 3 to 330 μM
  kinact/KI: 190 M⁻¹ s⁻¹
[1]
  kobs/[I]: 18 M⁻¹ s⁻¹
[3]; Table IV, [I] 0.01 to 0.51 mM
  kinact/KI: 70 M⁻¹ s⁻¹
Human plasmin; [5]
  kinact/KI: 770 M⁻¹ s⁻¹
[4]
  half-life: 2.05 h

## N=C(N)SCCCOc1oc(=O)c2ccccc2c1Cl [3-(3-isothiureidopropoxy)-4-chloroisocoumarin]
Bovine factor Xa
  kinact/KI: 220 M⁻¹ s⁻¹
Human factor XIa; Table I, [I] 3 to 330 μM
  kinact/KI: 47000 M⁻¹ s⁻¹
Human factor XIIa; Table I, [I] 3 to 330 μM
  kinact/KI: 27000 M⁻¹ s⁻¹
Complement protein D
  kinact/KI: 145 M⁻¹ s⁻¹
[1]
  kobs/[I]: 230 M⁻¹ s⁻¹
[3]; Table IV, [I] 0.01 to 0.51 mM
  kinact/KI: 70 M⁻¹ s⁻¹
[2]
  kinact/KI: 12800 M⁻¹ s⁻¹
[4]
  half-life: 1.65 h

## N=C(N)SCCCOc1oc(=O)c2cc(N)ccc2c1Cl [7-amino-4-chloro-3-(3-isothiureidopropoxy)isocoumarin]
Bovine factor Xa
  kinact/KI: 1640 M⁻¹ s⁻¹
Human factor XIa; Table I, [I] 3 to 330 μM
  kinact/KI: 22000 M⁻¹ s⁻¹
Human factor XIIa; Table I, [I] 3 to 330 μM
  kinact/KI: 6200 M⁻¹ s⁻¹
Complement protein D
  kinact/KI: 55 M⁻¹ s⁻¹
[1]
  kobs/[I]: 710 M⁻¹ s⁻¹
[3]; Table IV, [I] 0.01 to 0.51 mM
  kinact/KI: 1 M⁻¹ s⁻¹
Human plasmin; [5]
  kinact/KI: 4340 M⁻¹ s⁻¹
[2]
  kinact/KI: 1960 M⁻¹ s⁻¹
[4]
  t1/2 for spontaneous hydrolysis: 1.5 h

## CCOc1oc(=O)c2cc(NC(=N)N)ccc2c1Cl [7-guanidino-3-ethoxy-4-chloroisocoumarin, 7-guanidino-4-chloro-3-ethoxyisocoumarin]
Bovine factor Xa
  kinact/KI: 26700 M⁻¹ s⁻¹
Human factor XIa; Table I, [I] 3 to 330 μM
  kinact/KI: 60000 M⁻¹ s⁻¹
Human factor XIIa; Table I, [I] 3 to 330 μM
  kinact/KI: 22000 M⁻¹ s⁻¹
Complement protein D
  kinact/KI: 193 M⁻¹ s⁻¹
[1]
  kobs/[I]: 2,200 M^-1 s^-1
[3]; Table IV, [I] 0.01 to 0.51 mM
  kinact/KI: 2300 M⁻¹ s⁻¹
Human plasmin; [5]
  kinact/KI: 12300 M⁻¹ s⁻¹
[2]
  kinact/KI: 6180 M⁻¹ s⁻¹
[4]
  half-life: 0.65 h

## COc1cc2ccc(NC(=N)N)cc2c(=O)o1 [7-guanidino-3-methoxyisocoumarin]
Bovine factor Xa
  kinact/KI: 460 M⁻¹ s⁻¹
Human factor XIa; Table I, [I] 3 to 330 μM
  kinact/KI: 1400 M⁻¹ s⁻¹
Human factor XIIa; Table I, [I] 3 to 330 μM
  kinact/KI: 520 M⁻¹ s⁻¹
[1]
  kobs/[I]: 53 M⁻¹ s⁻¹
[3]; Table IV, [I] 0.01 to 0.51 mM
  kinact/KI: 55 M⁻¹ s⁻¹
Human plasmin; [5]
  kinact/KI: 320 M⁻¹ s⁻¹
[4]
  half-life: 4.2 h

## N=C(N)Nc1ccc2c(Cl)c(OCCc3ccccc3)oc(=O)c2c1 [7-guanidino-4-chloro-3-(2-phenylethoxy)isocoumarin]
Bovine factor Xa
  kinact/KI: 96000 M⁻¹ s⁻¹
Human factor XIa; Table I, [I] 3 to 330 μM
  kinact/KI: 20000 M⁻¹ s⁻¹
Human factor XIIa; Table I, [I] 3 to 330 μM
  kinact/KI: 26000 M⁻¹ s⁻¹
Complement protein D
  kinact/KI: 92 M⁻¹ s⁻¹
[1]
  kobs/[I]: 3,900 M^-1 s^-1
[3]; Table IV, [I] 0.01 to 0.51 mM
  kinact/KI: 5.7 M⁻¹ s⁻¹
Human plasmin; [5]
  kinact/KI: 4140 M⁻¹ s⁻¹
[2]
  kinact/KI: 1880 M⁻¹ s⁻¹
[4]
  half-life: 0.6 h

## COc1oc(=O)c2cc(NC(=N)N)ccc2c1Cl [7-guanidino-4-chloro-3-methoxyisocoumarin]
Bovine factor Xa
  kinact/KI: 3100 M⁻¹ s⁻¹
Human factor XIa; Table I, [I] 3 to 330 μM
  kinact/KI: 36200 M⁻¹ s⁻¹
Human factor XIIa; Table I, [I] 3 to 330 μM
  kinact/KI: 20000 M⁻¹ s⁻¹
Complement protein D
  kinact/KI: 252 M⁻¹ s⁻¹
[1]
  kobs/[I]: 620 M⁻¹ s⁻¹
[3]; Table IV, [I] 0.01 to 0.51 mM
  kinact/KI: 860 M⁻¹ s⁻¹
Human plasmin; [5]
  kinact/KI: 3500 M⁻¹ s⁻¹
[2]
  kinact/KI: 6620 M⁻¹ s⁻¹
[4]
  half-life: 0.733 h

## N=C(N)SCCOc1oc(=O)c2cc(NC(=O)Nc3ccccc3)ccc2c1Cl [PhNHCONH-CiTEtOIC, 7-(phenylcarbamoylamino)-4-chloro-3-(2-isothiureidoethoxy)isocoumarin]
Human factor XIa; Table VIII, [I] 0.7-0.8 μM
  kinact/KI: 104000 M⁻¹ s⁻¹
Human factor XIIa; Table VIII, [I] 3.6-4.9 μM
  kinact/KI: 50000 M⁻¹ s⁻¹
[3]; Table X, [I] 33-46 μM
  kinact/KI: 840 M⁻¹ s⁻¹
Human plasmin; Table IX, 0.01M CaCl2, pH 7.5, 25° C, [I] 8.3-41 μM
  kinact/KI: 32000 M⁻¹ s⁻¹
[4]
  t1/2 for spontaneous hydrolysis: 1.8 h
